Where “and” joins values, the source holds several entries; their conditions need not be identical. Identical values can stand only once. Marks after values point to notes of the source that are not given here.
Tests used:
[1] = Analysis of 1/T1 ^1H NMRD profiles; type: physicochemical
Description: The relaxometric characterization of the Gd complexes was carried out by recording their ^1H nuclear magnetic relaxation dispersion (NMRD) profiles at 283, 298, and 310 K in the proton Larmor frequency range 0.01–120 MHz, corresponding to magnetic field strengths varying between 2.34 × 10^–4 and 3 T (Figure 2). The shape of the NMRD profiles and their temperature dependence (r1 decreases with increasing temperature) reflect the general behavior of small Gd^III complexes, characterized by a constant r1 value at low fields, a dispersion around 4–6 MHz, and another region at high fields (>20 MHz) where r1 slightly decreases. […] A least-squares fit of the profiles was carried out in terms of the established theory of paramagnetic relaxation expressed by the Solomon–Bloembergen–Morgan[30],[31] and Freed’s[32] equations for the innersphere (IS) and outersphere (OS) proton relaxation mechanisms, respectively (Table 3). Because of the large number of parameters involved in the fitting procedure, some of them were fixed to known or reasonable values: The hydration number q was fixed to 1, and the distance between Gd^III and the protons of the bound water molecule, r, was fixed to 3.0 Å; the distance of closest approach, a, of the outersphere water molecules to Gd^III was set to 4.0 Å, and for the relative diffusion coefficient D, standard values of 1.7, 2.24, and 3.1 × 10^–5 cm^2 s^–1 (283, 298, and 310 K) were used. […] The difference in relaxivity between GdL1 and GdL2 cannot account for the difference in τR since their molecular weight is very similar; therefore, we considered that the pendant propionate moiety of GdL2 allows for the presence of second sphere (SS) water molecules in H-bonding interaction with the carboxylate group at a distance from Gd^III sufficiently short (<4 Å) and with a residence time sufficiently long to be affected by the rotation. […] Therefore, we analyzed the NMRD profiles for GdL2 also considering the SS contribution, expressed in terms of two additional parameters: the number qSS of second sphere water molecules and their rotational correlation time, τR(SS). The average distance from the paramagnetic center was arbitrarily fixed at 3.5 Å, an intermediate value between those of water molecules in the inner (3.0 Å) and outer (4.0 Å) solvation shell.[33] In addition, since GdL1 and GdL2 are structurally related to the recently reported GdHPADO3A-like complexes having a carbonyl group in place of the methyl group present in GdHPDO3A, τM was fixed to that reported for GdHPADO3A at pH 7 (20 ns).[7] The electronic and reorientation parameters reported in Table 3 for GdL1 and GdL2 are in good agreement with those of other GdHPDO3A-like complexes. Finally, considering the contribution of two second sphere water molecules characterized by a rotational correlation time τR(SS) of 30 ps, the contribution of the SS molecules to the relaxivity of GdL2 is about 0.3 mM^–1 s^–1 at 20 MHz and 298 K almost equal to the Δr1 between GdL1 and GdL2.
Proton relaxation measurements (1/T1) and the resulting 1/T1 NMRD profiles were measured on a fast-field cycling (FFC) Stelar SmarTracer relaxometer over a continuum of magnetic field strengths from 0.000 24 to 0.25 T (corresponding to 0.01–10 MHz proton Larmor frequencies). The relaxometer operates under computer control with an absolute uncertainty in 1/T1 of ±1%. […] Furthermore, the real temperature inside the probe head was additionally monitored by a Fluke 52 k/j digital thermometer (Fluke, Zürich, Switzerland). The gadolinium concentration was determined by measuring the bulk magnetic susceptibility shifts of the t-BuOH ^1H NMR signal. Additional data in the 20–120 MHz frequency range were obtained with a high field relaxometer (Stelar) equipped with the HTS-110 3T metrology cryogen-free superconducting magnet. […] The pH-dependent relaxivity measurements of GdL1 and GdL2 complexes were carried out by direct titration of the samples (GdL2, 3.0 < pH < 12.5; GdL1, 4 < pH < 10). […]

[2] = not fitted: fixed to the value determined for GdHPADO3A ref 7; cited from earlier work
[3] = Protonation constants of the ligands by pH potentiometry; type: physicochemical; settings: I = 0.15 M NaCl, 298 K
Description: The metal complexes of biomedical interest must show a high in vivo stability, which includes high thermodynamic stability and kinetic inertness to allow targeting applications and to avoid possible toxic effects derived by metal ion and ligand release via transmetalation or transchelation reactions.[2],[3],[13] The protonation constants of L2 as well as the stability and the protonation constants of GdL2 and those of the most important endogenous divalent metal complexes (Ca^II-, Zn^II-, and Cu^II) were determined by pH potentiometry (Table 1 and Table S1). In the case of GdL1, we were interested in determining the dissociation constant of the hydroxyl group that was measured also by pH potentiometry (Table 1). Experimental details and the definitions and equations used for the evaluation of the equilibrium and kinetic data are summarized in the SI.
The chemicals used for the experiments were of the highest analytical grade. The concentrations of the CaCl2, ZnCl2, CuCl2, and GdCl3 solutions were determined by complexometric titration with standardized Na2H2EDTA and xylenol orange (ZnCl2, and GdCl3), murexid (CuCl2), and Patton and Reeder (CaCl2) as indicators. The concentration of the H3L1 and H4L2 was determined by pH potentiometric titration in the presence and absence of a large (40-fold) excess of CaCl2. The pH potentiometric titrations were performed with standardized 0.2 M NaOH.
For the pH measurements and titrations, the Metrohm 888 Titrando titration workstation Metrohm-6.0234.110 combined electrode was used. Equilibrium measurements were carried out at a constant ionic strength (0.15 M NaCl) in 6 mL samples at 25 °C. The solutions were stirred, and N2 was bubbled through them. The titrations were made in the pH range 1.7–12.0. KH-phthalate (pH = 4.005) and borax (pH = 9.177) buffers were used to calibrate the pH meter. For the calculation of [H^+] from the measured pH values, the method proposed by Irving et al. was used as follows.[34] A 0.01 M HCl solution was titrated with standardized NaOH solution at 0.15 M NaCl ionic strength. The differences (A) between the measured (pHread) and calculated (−log[H^+]) pH values were used to obtain the equilibrium H^+ concentration from the pH values measured in the titration experiments (A = 0.024). For the equilibrium calculations, the stoichiometric water ionic product (pKw) was also needed to calculate [OH^–] values under basic conditions. The VNaOH–pHread data pairs of the HCl–NaOH titration obtained in the pH range 10.5–12.0 were used to calculate the pKw value (pKw = 13.79).

SMILES | contribution of the second sphere (SS) water molecules to the relaxivity ([1]; 20 MHz, 298 K, qSS = 2, τR(SS) 30 ps) | ^298r1-60-MHz ([1]; 298 K, 60 MHz, pH 7.4) [mM^–1 s^–1] | ^310r1-60-MHz ([1]; 310 K, 60 MHz, pH 7.4) [mM^–1 s^–1] | Δ^2 ([1]; NMRD fit) | τv ([1]; NMRD fit) [ps] | τR ([1]; NMRD fit, q = 1) [ps] | τR(SS) ([1]; determined for qSS = 2 and rSF = 3.5 Å) | τM [2] | log K5^H ([3]; first line headed log K5^H) | log K1^H ([3]; ligand protonation constant) | log K2^H ([3]; ligand protonation constant) | log K3^H ([3]; ligand protonation constant) | log K4^H ([3]; ligand protonation constant) | log K5^H ([3]; second line headed log K5^H (sixth constant))
O=C([O-])CN1CCN(CC(=O)[O-])CCN(CC(O)C(=O)O)CCN(CC(=O)[O-])CC1.[Gd+3] (centres unmarked) [GdL2] | about 0.3 mM^–1 s^–1 | 4.6 ± 0.1 | 3.6 ± 0.1 | 8.5 ± 0.2 10^19 s^–2 | 13.7 ± 0.5 | 68 ± 2 | 30 ps and 30 ± 2 ps | 20 ^c ns | – | – | – | – | – | –
O=C(O)CN1CCN(CC(=O)O)CCN(C[C@@H](O)C(=O)O)CCN(CC(=O)O)CC1 [L2, (R)2,2′,2″-(10-(2-Carboxy-2-hydroxyethyl)-1,4,7,10-tetraazacyclododecane-1,4,7-triyl) Triacetic Acid] | – | – | – | – | – | – | – | – | 2.47 (4) | 8.95 (3) | 8.95 (2) | 4.22 (3) | 3.74 (3) | 1.75 (4)
